# From patent US20220089575A1, “FARNESOID X RECEPTOR AGONISTS AND USES THEREOF” (Metacrine, Inc., priority 2017, published 2022)
# Biological target: T1, hFXR (Homo sapiens, UniProt Q96RI1)
# T1 construct: expressed in transfected cells; host or cells: CV-1 cells
# T1 sequence (Q96RI1 1-486): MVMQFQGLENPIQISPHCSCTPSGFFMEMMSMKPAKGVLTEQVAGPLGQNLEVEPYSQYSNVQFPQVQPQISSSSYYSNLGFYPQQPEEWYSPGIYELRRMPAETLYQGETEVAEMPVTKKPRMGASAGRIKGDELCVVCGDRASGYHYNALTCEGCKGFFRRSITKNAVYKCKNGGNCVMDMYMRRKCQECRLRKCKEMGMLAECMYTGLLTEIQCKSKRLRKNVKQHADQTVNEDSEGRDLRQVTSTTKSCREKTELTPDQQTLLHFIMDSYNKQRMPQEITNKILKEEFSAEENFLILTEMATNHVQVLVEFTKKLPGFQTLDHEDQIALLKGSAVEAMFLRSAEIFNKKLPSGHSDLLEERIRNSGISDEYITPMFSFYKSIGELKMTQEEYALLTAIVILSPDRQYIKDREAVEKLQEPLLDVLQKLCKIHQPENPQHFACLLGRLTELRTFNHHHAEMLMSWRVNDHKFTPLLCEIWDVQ
# T1 sequence (P19793 1-462 partner): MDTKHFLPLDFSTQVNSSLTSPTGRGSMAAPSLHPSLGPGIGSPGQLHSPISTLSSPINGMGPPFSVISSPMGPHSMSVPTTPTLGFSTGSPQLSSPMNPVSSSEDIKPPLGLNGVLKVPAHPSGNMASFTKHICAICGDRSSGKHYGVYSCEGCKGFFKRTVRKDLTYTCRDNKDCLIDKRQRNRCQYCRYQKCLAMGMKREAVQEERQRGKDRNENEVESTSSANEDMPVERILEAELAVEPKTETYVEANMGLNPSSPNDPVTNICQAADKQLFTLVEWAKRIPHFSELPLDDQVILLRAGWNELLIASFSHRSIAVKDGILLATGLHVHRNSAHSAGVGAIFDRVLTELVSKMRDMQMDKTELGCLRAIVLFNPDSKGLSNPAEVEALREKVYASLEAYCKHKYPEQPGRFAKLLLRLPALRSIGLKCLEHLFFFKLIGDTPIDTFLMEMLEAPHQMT
# Assay: In Vitro FXR Assay (TK): TK-ECRE-luc reporter in transfected CV-1 cells
# Format: cell-based
# Conditions: 18 hrs, luminescence, maximum efficacy of <25% of the Fexarmine control classified as '+'
# Method in brief: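 Luciferase read-out after 18 h compound exposure of CV-1 cells carrying transfected hFXR plus hRXR expression plasmids, TK-ECRE-luc reporter and pCMX-YFP. Cells cultured in charcoal-stripped FBS before transfection; compounds serially diluted in DMSO.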
row,EC50 [nM],Compound
1,≤ 250,"CN(C)c1ccc([C@H]2CC[C@H](CN(c3cccc(-c4cnn(C5CC5)c4)c3)C(=O)[C@H]3CC[C@H](C(=O)O)CC3)CC2)cn1 [Compound 17.14, trans-4-((3-(1-Cyclopropyl-1H-pyrazol-4-yl)phenyl)((trans-4-(6-(dimethylamino)pyridin-3-yl)cyclohexyl)methyl)carbamoyl) cyclohexanecarboxylic acid]"
2,≤ 250,"CNC(=O)OCC(=O)N[C@H]1CC[C@H](C(=O)N(C[C@H]2CC[C@H](c3ccc(OC)c(C)c3)CC2)c2cccc(-c3cnc(C4CC4)s3)c2)CC1 [Compound 25.15, 2-((trans-4-((3-(2-Cyclopropylthiazol-5-yl)phenyl)((trans-4-(4-methoxy-3-methylphenyl)cyclohexyl)methyl)carbamoyl)cyclohexyl)amino)-2-oxoethyl methylcarbamate]"
3,≤ 250,"CCOC(=O)C[C@H]1CC[C@H](C(=O)N(C[C@H]2CC[C@H](c3ccc(OC)c(C#N)c3)CC2)c2cc(-c3cnn(C(C)C)c3)ccn2)CC1 [Compound 18.21, Ethyl 2-(trans-4-(((trans-4-(3-cyano-4-methoxyphenyl)cyclohexyl)methyl)(4-(1-isopropyl-1H-pyrazol-4-yl)pyridin-2-yl)carbamoyl)cyclohexyl)acetate]"
4,≤ 250,"Cn1nc(F)c2cc([C@H]3CC[C@H](CN(c4cccc(-c5cnc(C6CC6)s5)c4)C(=O)[C@H]4CC[C@H](C(=O)O)CC4)CC3)ccc21 [Compound 17.04, trans-4-((3-(2-Cyclopropylthiazol-5-yl)phenyl)((trans-4-(3-fluoro-1-methyl-1H-indazol-5-yl)cyclohexyl)methyl)carbamoyl) cyclohexanecarboxylic acid]"
5,≤ 250,"COc1ccc([C@H]2CC[C@H](CN(c3cccc(-c4cnc(C5CC5)s4)c3)C(=O)[C@H]3CC[C@H](CC(=O)O)CC3)CC2)nc1C [Compound 20.03, 2-(trans-4-((3-(2-Cyclopropylthiazol-5-yl)phenyl)((trans-4-(5-methoxy-6-methylpyridin-2-yl)cyclohexyl)methyl)carbamoyl)cyclohexyl)acetic acid]"
6,≤ 250,"COc1ccc([C@H]2CC[C@H](CN(c3cc(-c4coc(C(C)C)n4)ccn3)C(=O)[C@H]3CC[C@H](OC(=O)N4CC(N(C)C)C4)CC3)CC2)nc1C [Compound 7.84, trans-4-((4-(2-Isopropyloxazol-4-yl)pyridine-2-yl)((trans-4-(5-methoxy-6-methylpyridin-2-yl)cyclohexyl)methyl)carbamoyl)cyclohexyl 3-(dimethylamino)azetidine-1-carboxylate]"
7,≤ 250,"COc1ccc([C@H]2CC[C@H](CN(c3cc(-c4cnn(C5CC5)c4)ccn3)C(=O)[C@H]3CC[C@H](NC(=O)CO)CC3)CC2)cc1C [Compound 26.32, trans-N-(4-(1-Cyclopropyl-1H-pyrazol-4-yl)pyridin-2-yl)-4-(2-hydroxyacetamido)-N-((trans-4-(4-methoxy-3-methylphenyl)cyclohexyl)methyl) cyclohexanecarboxamide]"
8,≤ 250,"COc1ccc([C@H]2CC[C@H](CN(c3cc(-c4coc(C(C)C)n4)ccn3)C(=O)[C@H]3CC[C@H](OC(=O)N4CC(O)C4)CC3)CC2)nc1C [Compound 7.71, trans-4-((4-(2-Isopropyloxazol-4-yl)pyridine-2-yl)((trans-4-(5-methoxy-6-methylpyridin-2-yl)cyclohexyl)methyl)carbamoyl)cyclohexyl 3-hydroxyazetidine-1-carboxylate]"
9,≤ 250,"COc1ccc([C@H]2CC[C@H](CN(c3cccc(-c4cnn(C5CC5)c4)c3)C(=O)[C@H]3CC[C@H](OC(N)=O)CC3)CC2)cc1C [Compound 1.06, trans-4-((3-(1-Cyclopropyl-1H-pyrazol-4-yl)phenyl)((trans-4-(4-methoxy-3-methylphenyl)cyclohexyl)methyl)carbamoyl)cyclohexyl carbamate]"
10,≤ 250,"COc1ccc([C@H]2CC[C@H](CN(c3cc(-c4coc(C5CC5)n4)ccn3)C(=O)[C@H]3CC[C@H](OC(=O)N4CCOC(C)C4)CC3)CC2)nc1C (stereo partly drawn) [Compound 7.107, trans-4-((4-(2-Cyclopropyloxazol-4-yl)pyridin-2-yl)((trans-4-(5-methoxy-6-methylpyridin-2-yl)cyclohexyl)methyl)carbamoyl)cyclohexyl 2-methylmorpholine-4-carboxylate]"
11,≤ 250,"COc1ccc([C@H]2CC[C@H](CN(c3cc(-c4coc(C5CC5)n4)ccn3)C(=O)[C@H]3CC[C@H](OC(=O)N4CC(OC(C)C)C4)CC3)CC2)nc1C [Compound 7.91, trans-4-((4-(2-Cyclopropyloxazol-4-yl)pyridine-2-yl)((trans-4-(5-methoxy-6-methylpyridin-2-yl)cyclohexyl)methyl)carbamoyl)cyclohexyl 3-isopropoxyazetidine-1-carboxylate]"
12,≤ 250,"CNC(=O)O[C@H]1CC[C@H](C(=O)N(C[C@H]2CC[C@H](c3cnc(OC)c(Cl)c3)CC2)c2cccc(-c3cnn(C4CC4)c3)c2)CC1 [Compound 5.11, trans-4-(((trans-4-(5-Chloro-6-methoxypyridin-3-yl)cyclohexyl)methyl)(3-(1-cyclopropyl-1H-pyrazol-4-yl)phenyl)carbamoyl)cyclohexyl methylcarbamate]"
13,≤ 250,"COc1ccc([C@H]2CC[C@H](CN(c3cc(-c4cnc(C(C)C)s4)ccn3)C(=O)[C@H]3CC[C@H](OC(=O)N4CC(O)C4)CC3)CC2)nc1C [Compound 7.07, trans-4-((4-(2-Isopropylthiazol-5-yl)pyridin-2-yl)((trans-4-(5-methoxy-6-methylpyridin-2-yl)cyclohexyl)methyl)carbamoyl)cyclohexyl 3-hydroxyazetidine-1-carboxylate]"
14,≤ 250,"COc1ccc([C@H]2CC[C@H](CN(c3cc(-c4cnn(C(C)C)c4)ccn3)C(=O)[C@H]3CC[C@H](OC(=O)NCCO)CC3)CC2)cc1C#N [Compound 6.22, trans-4-(((trans-4-(3-Cyano-4-methoxyphenyl)cyclohexyl)methyl)(4-(1-isopropyl-1H-pyrazol-4-yl)pyridin-2-yl)carbamoyl)cyclohexyl (2-hydroxyethyl)carbamate]"
15,≤ 250,"COC(=O)N[C@H]1CC[C@H](C(=O)N(C[C@H]2CC[C@H](c3ccc(OC)c(C)c3)CC2)c2cccc(-c3cnc(OC)s3)c2)CC1 [Compound 25.05, Methyl (trans-4-(((trans-4-(4-methoxy-3-methylphenyl)cyclohexyl)methyl)(3-(2-methoxythiazol-5-yl)phenyl)carbamoyl)cyclohexyl) carbamate]"
16,≤ 250,"COCCOC1CN(C(=O)O[C@H]2CC[C@H](C(=O)N(C[C@H]3CC[C@H](c4ccc(OC)c(C)n4)CC3)c3cc(-c4coc(C5CC5)n4)ccn3)CC2)C1 [Compound 7.95, trans-4-((4-(2-Cyclopropyloxazol-4-yl)pyridine-2-yl)((trans-4-(5-methoxy-6-methylpyridin-2-yl)cyclohexyl)methyl)carbamoyl)cyclohexyl 3-(2-methoxyethoxy)azetidine-1-carboxylate]"

row,Compound,EC50 [nM]
1,"COc1ccc([C@H]2CC[C@H](CN(c3cccc(-c4cnn(C5CC5)c4)c3)C(=O)[C@H]3CC[C@H](OC(=O)N4CC(NC(=O)OC(C)(C)C)C4)CC3)CC2)cc1C [Compound 7.38, trans-4-((3-(1-Cyclopropyl-1H-pyrazol-4-yl)phenyl)((trans-4-(4-methoxy-3-methylphenyl)cyclohexyl)methyl)carbamoyl)cyclohexyl 3-((tert-butoxycarbonyl)amino)azetidine-1-carboxylate]",≤ 250
